The source of these data is ChEMBL document CHEMBL4052616, “Isoniazid derivatives and their anti-tubercular activity” (Eur J Med Chem, 2017).

One may read the MIC as the least concentration at which growth counts as inhibited.

In brackets after ≈: the same amount, converted by molar mass.

In the assay the test system is Mycobacterium tuberculosis. In words: Antimycobacterial activity against human resistant Mycobacterium tuberculosis measured after six weeks. Format: functional.

Compound `C=CCN1C(=O)/C(=N\NC(=O)c2ccncc2)c2ccccc21` displayed a minimum inhibitory concentration (MIC) of 2.7 to 3.5 µg/mL (≈ 8.81 to 11.4 µM).
Then `O=C(N/N=C1\C(=O)N(Cc2ccccc2)c2ccccc21)c1ccncc1`, with 2.7 to 3.5 µg/mL (≈ 7.58 to 9.82 µM).
